Test results as given in patent publication US20030225065A1, “Bis-arylsulfones” (priority 2002, published 2003).
Where a name gives a salt, the structure may show the parent alone.

Tested on: not given
Test: not given
Conditions: not given
Work on `Nc1cc(N2CCNCC2)ccc1S(=O)(=O)c1ccccc1` (as salt: salt) [Example 1, 2-(phenylsulfonyl)-5-(1-piperazinyl)phenylamine] yielded a melting point of 165 to 166 °C. In the case of `CN1CCN(c2ccc(S(=O)(=O)c3ccccc3)c(N)c2)CC1` [Example 7, 5-(4-methyl-1-piperazinyl)-2-(phenylsulfonyl) phenylamine], the melting point is reported as 90 to 93 °C. With `CCNc1cc(N2CCNCC2)ccc1S(=O)(=O)c1ccccc1` (as salt: salt) [Example 13, N-ethyl-2-(phenylsulfonyl)-5-(1-piperazinyl) phenylamine] the melting point was 121 to 123 °C. For `Nc1cc(N2CCCNCC2)ccc1S(=O)(=O)c1cccc(F)c1` (as salt: hydrochloride) [Example 2, 5-(1,4-diazepan-1-yl)-2-[(3-fluorophenyl)sulfonyl]phenylamine], the melting point was 106 to 108 °C. With `Cc1ccc(S(=O)(=O)c2ccc(N3CCN(C)CC3)cc2N)cc1` [Example 6, 2-[(4-methylphenyl)sulfonyl]-5-(4-methyl-1-piperazinyl) phenylamine] the melting point was 148 to 151 °C. With `CNc1cc(N2CCCNCC2)ccc1S(=O)(=O)c1cccc(F)c1` (as salt: HCl) the melting point was 153 to 154 °C. `CN1CCN(c2ccc(S(=O)(=O)c3ccc(F)cc3)c(N)c2)CC1` [Example 4, 2-[(4-fluorophenyl)sulfonyl]-5-(4-methyl-1-piperazinyl) phenylamine] showed a melting point of 85 to 89 °C. Work on `Cc1ccc(S(=O)(=O)c2ccc(N3CCNCC3)cc2N)cc1` [Example 5, 2-[(4-methylphenyl)sulfonyl]-5-(1-piperazinyl) phenylamine] yielded a melting point of 102 to 106 °C. With `Nc1cc(N2CCNCC2)ccc1S(=O)(=O)c1ccc(F)cc1` [Example 3, 2-[(4-fluorophenyl)sulfonyl]-5-(1-piperazinyl) phenylamine] the melting point was 144 to 146 °C. With `CN1CCN(c2ccc(S(=O)(=O)c3cccc(F)c3)c(N)c2)CC1` [Example 8, 2-[(3-fluorophenyl)sulfonyl]-5-(4-methyl-1-piperazinyl) phenylamine] the melting point was 89 to 92 °C.

Biological target: T1, cloned human 5-HT6 receptor (Homo sapiens, UniProt P50406)
T1 construct: host or cells: HeLa cells (G-418 selection), membrane preparation
T1 sequence (P50406 whole entry): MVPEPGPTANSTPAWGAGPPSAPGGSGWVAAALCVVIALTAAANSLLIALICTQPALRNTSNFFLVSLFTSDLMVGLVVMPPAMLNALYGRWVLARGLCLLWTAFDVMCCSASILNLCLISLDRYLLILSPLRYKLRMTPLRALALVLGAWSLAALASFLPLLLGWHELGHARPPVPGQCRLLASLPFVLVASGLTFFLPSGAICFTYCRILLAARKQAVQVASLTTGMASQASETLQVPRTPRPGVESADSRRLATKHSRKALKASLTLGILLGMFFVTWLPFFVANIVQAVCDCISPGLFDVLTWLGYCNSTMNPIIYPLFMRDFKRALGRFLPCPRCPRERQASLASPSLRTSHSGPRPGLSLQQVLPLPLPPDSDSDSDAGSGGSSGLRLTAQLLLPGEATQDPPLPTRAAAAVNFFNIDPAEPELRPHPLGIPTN
Test: 5-HT6 receptor binding assay ([3H]-LSD radioligand, SPA beads, Hela cell membranes)
Conditions: IC50 converted to Ki by the Cheng-Prusoff equation
Experimental: Harvested intact cells are washed once in cold phosphate-buffered saline. The cells are pelleted and resuspended in 100 ml of cold 50 mM Tris, 5 mM EDTA and 5 mM EGTA, pH 7.4. Homogenization is with a Vir Tishear generator, 4 cycles for 30 seconds each at setting 50. The homogenized cells are centrifuged at 700 RPM (1000×g) for 10 minutes and the supernatant is removed. […] The rehomogenized cells are then centrifuged at 700 RPM (1000×g) for 10 minutes and the supernatant is removed. […] The membrane pellet is resupended in 50-8-ml of assay buffer containing HEPES 20 mM, MgCl2 10 mM, NaCl 150 mM, EDTA 1 mM, pH 7.4 and stored frozen in aliqouts at −70° C.
The radioligand binding assay used [^3H]-lysergic acid diethylamide (LSD). The assay is carried out in Wallac 96-well sample plates by the addition of 11 μl of the test sample at the appropriate dilution (the assay employed 11 serial concentrations of samples run in duplicate), 11 μl of radioligand, and 178 μl of a washed mixture of WGA-coated SPA beads and membranes in binding buffer. The plates are shaken for about 5 minutes and then incubated at room temperature for 1 hour. The plates are then loaded into counting cassettes and counted in a Wallac MicroBeta Trilux scintillation counter.
Eleven serial dilutions of test compounds are distributed to assay plates using the PE/Cetus Pro/Pette pipetter. […]
Molecule `CCNc1cc(N2CCNCC2)ccc1S(=O)(=O)c1ccccc1` [Example 13, N-ethyl-2-(phenylsulfonyl)-5-(1-piperazinyl) phenylamine] has a Ki of 2.7 nM.
